Laboratory results published in ChEMBL document CHEMBL1201862, “PubChem BioAssay data set” (2004).
Calls of active or inactive are those of the source.

How the values were obtained:
[1] = target: T1, Zinc finger protein mex-5 (Caenorhabditis elegans, UniProt Q9XUB2); assay: MEX-5/TCR-2 RNA interaction inhibitors, dose response, biochemical, C. elegans, fluorescence polarization (AID 1960)
T1 sequence (Q9XUB2 whole entry): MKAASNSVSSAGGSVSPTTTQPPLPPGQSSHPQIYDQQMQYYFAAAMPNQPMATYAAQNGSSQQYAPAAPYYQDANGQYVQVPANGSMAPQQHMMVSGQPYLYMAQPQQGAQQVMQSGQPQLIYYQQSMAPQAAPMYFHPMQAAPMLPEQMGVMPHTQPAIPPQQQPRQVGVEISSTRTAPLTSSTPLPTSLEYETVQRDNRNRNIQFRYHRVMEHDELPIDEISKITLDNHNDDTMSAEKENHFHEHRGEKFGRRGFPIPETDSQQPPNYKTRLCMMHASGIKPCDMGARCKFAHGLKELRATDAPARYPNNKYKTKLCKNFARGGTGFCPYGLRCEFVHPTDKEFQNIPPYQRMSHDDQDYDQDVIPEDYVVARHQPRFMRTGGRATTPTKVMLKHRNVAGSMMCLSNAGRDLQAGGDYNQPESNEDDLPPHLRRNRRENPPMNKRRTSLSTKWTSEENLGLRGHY

[2] = target: Mothers against decapentaplegic homolog 3 (Homo sapiens, UniProt P84022); assay: SMAD3 transcription factor inhibitors, dose response (AID 715); assay type: functional
Mothers against decapentaplegic homolog 3, sequence (P84022 whole entry): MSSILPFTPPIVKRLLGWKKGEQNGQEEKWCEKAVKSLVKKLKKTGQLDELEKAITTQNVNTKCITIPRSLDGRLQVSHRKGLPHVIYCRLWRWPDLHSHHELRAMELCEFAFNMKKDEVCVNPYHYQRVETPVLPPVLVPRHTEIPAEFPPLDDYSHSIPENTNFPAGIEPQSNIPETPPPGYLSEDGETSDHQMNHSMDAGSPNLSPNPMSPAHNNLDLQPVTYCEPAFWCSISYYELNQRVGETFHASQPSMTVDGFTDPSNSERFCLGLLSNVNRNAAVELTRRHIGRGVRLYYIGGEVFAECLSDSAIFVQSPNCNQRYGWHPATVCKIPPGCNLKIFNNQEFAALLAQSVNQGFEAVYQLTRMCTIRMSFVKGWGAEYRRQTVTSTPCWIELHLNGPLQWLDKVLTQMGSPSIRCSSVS

[3] = target: T2, Calpain-2 catalytic subunit (Sus scrofa, UniProt P43367); assay: pig calpain II inhibitor potency, dose response, biochemical, fluorogenic peptide substrate (AID 1420); assay type: functional
T2 sequence (P43367 whole entry): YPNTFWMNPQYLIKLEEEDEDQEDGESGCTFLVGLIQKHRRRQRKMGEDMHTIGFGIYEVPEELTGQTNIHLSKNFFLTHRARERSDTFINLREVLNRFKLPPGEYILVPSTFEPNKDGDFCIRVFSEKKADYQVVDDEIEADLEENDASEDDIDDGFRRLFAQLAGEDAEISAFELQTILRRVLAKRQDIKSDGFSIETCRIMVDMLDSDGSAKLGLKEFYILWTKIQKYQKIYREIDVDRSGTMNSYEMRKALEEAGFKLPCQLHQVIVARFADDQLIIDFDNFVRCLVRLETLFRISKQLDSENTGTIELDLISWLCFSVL

[4] = target: T3, Protein RecA (Mycobacterium tuberculosis, UniProt P9WHJ3); assay: Fluorescence Cell-Free Homogeneous Dose Retest to Identify Inhibitors of RecA-Intein Splicing Activity. [Related pubchem assays (depositor defined):AID2097, AID2223, AID489010, AID492950]; assay type: functional
T3 sequence (P9WHJ3 whole entry): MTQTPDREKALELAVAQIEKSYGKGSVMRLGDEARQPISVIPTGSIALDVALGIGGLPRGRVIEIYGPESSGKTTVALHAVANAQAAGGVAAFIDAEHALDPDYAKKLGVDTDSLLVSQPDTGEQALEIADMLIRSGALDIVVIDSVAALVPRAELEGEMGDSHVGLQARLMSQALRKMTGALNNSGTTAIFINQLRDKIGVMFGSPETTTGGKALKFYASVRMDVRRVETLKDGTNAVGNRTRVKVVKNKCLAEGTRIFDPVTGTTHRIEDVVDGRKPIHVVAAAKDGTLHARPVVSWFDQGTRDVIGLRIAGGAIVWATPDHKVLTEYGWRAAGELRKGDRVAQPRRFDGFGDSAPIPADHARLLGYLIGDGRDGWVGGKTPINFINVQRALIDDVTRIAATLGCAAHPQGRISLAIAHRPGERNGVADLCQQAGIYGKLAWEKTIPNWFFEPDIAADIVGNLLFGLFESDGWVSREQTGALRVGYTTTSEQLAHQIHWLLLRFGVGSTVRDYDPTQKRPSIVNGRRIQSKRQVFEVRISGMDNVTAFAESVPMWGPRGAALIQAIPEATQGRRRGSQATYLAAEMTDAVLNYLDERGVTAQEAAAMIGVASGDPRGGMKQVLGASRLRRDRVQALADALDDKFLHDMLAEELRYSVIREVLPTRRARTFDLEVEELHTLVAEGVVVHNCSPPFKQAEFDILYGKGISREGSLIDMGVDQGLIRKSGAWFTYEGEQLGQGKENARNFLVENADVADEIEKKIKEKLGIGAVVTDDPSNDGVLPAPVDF

[5] = inhibitors of intracellular T. cruzi replication, confirmation, NIH3T3 host cells, beta-gal luminescence (AID 2044); assay type: functional, cell-based;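 further: intracellular parasites grown in NIH/3T3 mouse fibroblasts as host cells; luminescent beta-galactosidase reporter signal from transgenic T. cruzi replicating inside host cells; inhibitors lower the luminescence signal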
[6] = target: DNA (cytosine-5)-methyltransferase 1 (Homo sapiens, UniProt P26358); assay: DNMT1 methyltransferase inhibitors, confirmation, biochemical, fluorescent molecular beacon (AID 602386); assay type: functional
DNA (cytosine-5)-methyltransferase 1, sequence (P26358 whole entry): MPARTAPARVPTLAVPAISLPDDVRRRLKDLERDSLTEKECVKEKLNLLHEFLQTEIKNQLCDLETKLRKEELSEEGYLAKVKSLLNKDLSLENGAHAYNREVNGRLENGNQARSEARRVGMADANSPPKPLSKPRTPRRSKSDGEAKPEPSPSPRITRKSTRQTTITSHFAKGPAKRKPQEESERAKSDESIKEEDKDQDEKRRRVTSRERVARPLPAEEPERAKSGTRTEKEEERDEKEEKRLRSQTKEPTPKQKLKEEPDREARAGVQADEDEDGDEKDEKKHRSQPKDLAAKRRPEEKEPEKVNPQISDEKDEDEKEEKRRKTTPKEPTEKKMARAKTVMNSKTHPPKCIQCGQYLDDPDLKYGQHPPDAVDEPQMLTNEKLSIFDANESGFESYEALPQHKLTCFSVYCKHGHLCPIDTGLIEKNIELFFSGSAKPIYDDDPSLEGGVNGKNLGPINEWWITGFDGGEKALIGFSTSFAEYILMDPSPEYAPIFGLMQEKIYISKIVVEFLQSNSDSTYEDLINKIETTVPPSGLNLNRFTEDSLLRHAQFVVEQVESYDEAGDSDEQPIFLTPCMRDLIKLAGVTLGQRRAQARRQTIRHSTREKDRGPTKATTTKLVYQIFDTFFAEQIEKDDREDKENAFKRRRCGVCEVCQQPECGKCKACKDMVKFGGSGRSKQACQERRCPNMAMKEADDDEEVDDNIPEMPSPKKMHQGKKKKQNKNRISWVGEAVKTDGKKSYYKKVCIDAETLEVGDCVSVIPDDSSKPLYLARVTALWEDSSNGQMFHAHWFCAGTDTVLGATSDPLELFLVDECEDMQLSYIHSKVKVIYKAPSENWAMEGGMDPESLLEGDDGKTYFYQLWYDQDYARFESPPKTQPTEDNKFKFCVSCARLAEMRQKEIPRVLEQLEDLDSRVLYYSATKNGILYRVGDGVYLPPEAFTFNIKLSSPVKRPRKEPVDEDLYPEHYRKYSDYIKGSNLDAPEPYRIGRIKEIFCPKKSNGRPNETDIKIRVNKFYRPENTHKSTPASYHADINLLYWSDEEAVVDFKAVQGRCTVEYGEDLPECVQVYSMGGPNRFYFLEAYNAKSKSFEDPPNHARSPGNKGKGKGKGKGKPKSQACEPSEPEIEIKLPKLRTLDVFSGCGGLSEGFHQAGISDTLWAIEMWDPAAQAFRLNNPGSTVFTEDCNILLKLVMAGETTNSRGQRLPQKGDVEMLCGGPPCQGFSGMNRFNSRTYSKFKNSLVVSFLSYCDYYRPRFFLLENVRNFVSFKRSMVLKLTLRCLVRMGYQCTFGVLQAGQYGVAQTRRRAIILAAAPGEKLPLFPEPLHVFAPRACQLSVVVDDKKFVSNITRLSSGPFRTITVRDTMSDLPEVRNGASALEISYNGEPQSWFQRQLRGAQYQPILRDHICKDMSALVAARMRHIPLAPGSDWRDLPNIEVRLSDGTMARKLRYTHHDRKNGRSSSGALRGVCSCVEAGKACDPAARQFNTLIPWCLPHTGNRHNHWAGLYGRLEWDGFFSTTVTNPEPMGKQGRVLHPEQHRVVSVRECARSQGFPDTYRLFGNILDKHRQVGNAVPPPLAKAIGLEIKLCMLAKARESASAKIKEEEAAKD

[7] = target: T4, Mitochondrial peptide methionine sulfoxide reductase (Bos taurus, UniProt P54149); assay: Absorbance-based biochemical high throughput dose response assay for activators of Methionine sulfoxide reductase A (MsrA).; assay type: functional
T4 sequence (P54149 whole entry): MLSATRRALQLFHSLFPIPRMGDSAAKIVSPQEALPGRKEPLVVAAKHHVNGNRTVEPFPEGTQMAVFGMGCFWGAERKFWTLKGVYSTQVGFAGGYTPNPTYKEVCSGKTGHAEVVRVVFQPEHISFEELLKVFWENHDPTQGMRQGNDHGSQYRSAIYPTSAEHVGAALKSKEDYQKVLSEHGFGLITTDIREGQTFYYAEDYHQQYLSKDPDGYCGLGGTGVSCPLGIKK

[8] = target: T5, Streptokinase A (Streptococcus pyogenes serotype M1, UniProt P10520); assay: S. pyogenes streptokinase expression inhibitors, potency, dose response, plasminogen activation absorbance, OD405 (AID 1914); assay type: functional, Streptococcus pyogenes M1 GAS;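 further: secreted streptokinase activity via plasminogen activation per viability signal from cell pellet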
T5 sequence (P10520 whole entry): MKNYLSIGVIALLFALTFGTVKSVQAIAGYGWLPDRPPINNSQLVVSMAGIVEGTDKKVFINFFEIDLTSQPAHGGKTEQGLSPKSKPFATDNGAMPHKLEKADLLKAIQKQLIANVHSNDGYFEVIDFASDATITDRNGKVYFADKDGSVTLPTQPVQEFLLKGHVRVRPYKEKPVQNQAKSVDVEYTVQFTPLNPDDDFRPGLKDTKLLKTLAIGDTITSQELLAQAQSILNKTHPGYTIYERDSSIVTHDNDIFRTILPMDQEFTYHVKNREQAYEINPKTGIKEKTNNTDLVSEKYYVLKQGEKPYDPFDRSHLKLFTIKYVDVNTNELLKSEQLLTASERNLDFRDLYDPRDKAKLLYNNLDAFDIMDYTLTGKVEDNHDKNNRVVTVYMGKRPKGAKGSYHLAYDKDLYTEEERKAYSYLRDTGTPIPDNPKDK

[9] = Counterscreen for AddAB inhibitors: absorbance-based bacterial cell-based high throughput dose response assay for inhibitors of bacterial viability. [Related pubchem assays (depositor defined):AID435030, AID449728, AID449731, AID488942, AID488955, AID488956]; assay type: functional
[10] = test system: Jurkat; assay: SAR Analysis of small molecule inhibitors of T-cell specific antigen receptor-induced NF-kB activation in a Jurkat cell line using a luminescence assay - Set 2. [Related pubchem assays (depositor defined):AID435003, AID435012, AID465]; assay type: functional, cell-based; conditions: Homo sapiens
[11] = Shn3 3'UTR reporter inhibitors, dose response, cell-based, Clone20 osteoblasts, firefly luciferase, cherry-picked (AID 624132); assay type: functional;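 further: firefly luciferase luminescence from reporter carrying the Shn3 3'UTR in osteoblasts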

Row | Structure (SMILES) | IC50 [3] | EC50 [4] | EC50 [8] | IC50 [9] | further results
1 | Cn1nc(-c2ccc(Cl)cc2)nc2c(=O)n(C)c(=O)nc1-2 | 24.7 µM (not active) | 0.0305 µM (active) | – | – | EC50 [1]: 16.8 µM (active); IC50 [2]: 0.039 µM (active)
2 | SC1=Nc2ccccc2C1 | 14.9 µM (not active) | 1.66 µM (active) | – | – | EC50 [5]: 0.487 µM (active)
3 | NS(=O)(=O)c1ccc(NC(=O)COC(=O)c2ccc([N+](=O)[O-])s2)cc1 | – | – | – | – | IC50 [6]: 25.1 µM (active); EC50 [7]: > 104 µM (inactive)
4 | COc1ccc(C(NC(=O)C(C)C)c2ccc3cccnc3c2O)cc1 (stereo not given) | – | – | > 150 µM (not active) | > 119 µM (inactive) | IC50 [10]: 2.38 µM (active); AC50 [11]: 1.35 µM (active)
5 | O=C(Cc1ccc([N+](=O)[O-])cc1)N/N=C/c1ccc([N+](=O)[O-])o1 | – | – | 37 µM (active) | 16.6 µM (inactive) | –
